The text below walks through data of patent US20220324835A1 (Nurix Therapeutics, Inc., priority 2018, published 2022).

A value given as a limit tells only on which side of the number the result lay.

The target in one experiment is Cbl-b (Homo sapiens, UniProt Q13191). The experiment is described as follows: Cbl-b activity assay (Cbl-b inhibition assay), TR-FRET of Cbl-b interaction with UbcH5B-Ub. Type of experiment: biochemical. Conditions: assay buffer with 100 mM NaCl, 60 nM Src kinase; read-out: Cbl-b activity IC50. Summed up: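 Compound-treated Cbl-b was incubated 1.5 h with Src kinase (60 nM final; 30 nM for asterisked values, which also used 50 mM instead of 100 mM NaCl), 1 mM ATP and 5 mM MgCl2. Binding to fluorescent Ub-loaded UbcH5B (C85K mutant) was then read by TR-FRET after 1 h more.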
Chain of Cbl-b (Q13191 36-427): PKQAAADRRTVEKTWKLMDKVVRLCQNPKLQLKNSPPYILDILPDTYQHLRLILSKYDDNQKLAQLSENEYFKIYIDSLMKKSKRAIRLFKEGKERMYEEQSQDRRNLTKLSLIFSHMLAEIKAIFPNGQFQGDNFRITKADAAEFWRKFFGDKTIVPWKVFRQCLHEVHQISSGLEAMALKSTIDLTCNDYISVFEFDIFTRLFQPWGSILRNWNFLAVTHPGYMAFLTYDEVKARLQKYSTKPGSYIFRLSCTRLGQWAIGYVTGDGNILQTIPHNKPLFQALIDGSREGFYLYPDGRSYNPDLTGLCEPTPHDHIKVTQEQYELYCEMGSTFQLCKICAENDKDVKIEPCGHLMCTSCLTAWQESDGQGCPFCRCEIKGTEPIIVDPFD

The subject of experiment [1] is T-cell. The experiment is described as follows: CD25 cell surface staining on T-cells co-stimulated with anti-CD3 and anti-CD28 antibody (Biological Example 2). Type of experiment: cell-based, human. Conditions: Homo sapiens, T-cell, fold change over baseline, primary human total T-cells, read-out: CD25 staining Anti-CD3/Anti-CD28 stimulation; for fold induction at 0.3 µM: 0.3 μM Cbl-b inhibitor; for fold induction at 1 µM: 1 μM Cbl-b inhibitor; for fold induction at 4 µM: 4 μM Cbl-b inhibitor. Summed up: (§1)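 Values are fold-change over baseline: readings (IL-2 release, CD25 staining) from inhibitor-treated T-cells divided against untreated cells […]. No detailed procedure stated.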

The subject of experiment [2] is T-cell. The experiment is described as follows: CD25 cell surface staining on T-cells stimulated with anti-CD3 antibody alone (Biological Example 2). Type of experiment: cell-based, human. Conditions: T-cell, fold change over baseline, primary human total T-cells, read-out: CD25 staining Anti-CD3 stimulation; for fold induction at 1 µM: 1 μM Cbl-b inhibitor; for fold induction at 8 µM: 8 μM Cbl-b inhibitor.

Experiment [3] relates to T-cell. The experiment is described as follows: IL-2 secretion from T-cells co-stimulated with anti-CD3 and anti-CD28 antibody (Biological Example 2). Type of experiment: cell-based, human. To be noted: Homo sapiens, T-cell, fold change over baseline, primary human total T-cells, read-out: IL-2 secretion Anti-CD3/Anti-CD28 stimulation; for fold induction at 0.3 µM: 0.3 μM Cbl-b inhibitor; for fold induction at 1 µM: 1 μM Cbl-b inhibitor; for fold induction at 4 µM: 4 μM Cbl-b inhibitor. Summed up:
as §1

On to `C[C@H](Cc1nncn1C)c1cccc(NC(=O)c2cc(C3CC3)cc(C(F)(F)F)n2)c1` [Compound 191, (R)-4-cyclopropyl-N-(3-(1-(4-methyl-4H-1,2,4-triazol-3-yl)propan-2-yl)phenyl)-6-(trifluoromethyl)picolinamide], for which, on Cbl-b, the IC50 is below 100 nM. In the experiment on T-cell [1], the fold induction at 0.3 µM was in the range of 1.31 to 1.5, the fold induction at 1 µM lay in the range of 1.51 to 1.75 and the fold induction at 4 µM lay within 1.51 to 1.75. In addition, in the experiment on T-cell [2], the fold induction at 1 µM was above 1 and the fold induction at 8 µM was above 1. For the same compound, in the experiment with T-cell [3], the fold induction at 0.3 µM was 2.51 to 5, the fold induction at 1 µM was 5 to 7.5 and the fold induction at 4 µM is above 7.5.

As to `C[C@H](Cc1nncn1C)c1cccc(NC(=O)c2cc(C3CC3)nc(C3CC3)n2)c1` [Compound 193, (R)-2,6-dicyclopropyl-N-(3-(1-(4-methyl-4H-1,2,4-triazol-3-yl)propan-2-yl)phenyl)pyrimidine-4-carboxamide], on Cbl-b, the IC50 was below 100 nM. Also, in the experiment with T-cell [1], the fold induction at 0.3 µM lay in the range of 1.01 to 1.3, the fold induction at 1 µM lay within 1.51 to 1.75 and the fold induction at 4 µM lay in the range of 1.51 to 1.75. Further, in the experiment with T-cell [2], the fold induction at 1 µM was above 1 and the fold induction at 8 µM was above 1. Moreover, in the experiment with T-cell [3], the fold induction at 0.3 µM was in the range of 2.51 to 5, the fold induction at 1 µM was in the range of 5 to 7.5 and the fold induction at 4 µM is above 7.5.

Regarding `Cc1cc(C(=O)Nc2cccc([C@H](C)Cc3nncn3C)c2)nc(C(F)(F)F)n1` [Compound 194, (R)-6-methyl-N-(3-(1-(4-methyl-4H-1,2,4-triazol-3-yl)propan-2-yl)phenyl)-2-(trifluoromethyl)pyrimidine-4-carboxamide], at Cbl-b, the IC50 is below 100 nM. In addition, in the experiment with T-cell [1], the fold induction at 0.3 µM lay in the range of 1.01 to 1.3, the fold induction at 1 µM was 1.51 to 1.75 and the fold induction at 4 µM was above 1.76. For the same compound, in the experiment on T-cell [2], the fold induction at 1 µM lay within 0.801 to 1 and the fold induction at 8 µM was above 1. Further, in the experiment on T-cell [3], the fold induction at 0.3 µM lay within 2.51 to 5, the fold induction at 1 µM is above 7.5 and the fold induction at 4 µM was above 7.5.

For the compound `Cc1cc(C(=O)Nc2cccc([C@H](C)Cc3nncn3C)c2)nc(C2CC2)n1` [Compound 195, (R)-2-cyclopropyl-6-methyl-N-(3-(1-(4-methyl-4H-1,2,4-triazol-3-yl)propan-2-yl)phenyl)pyrimidine-4-carboxamide], the IC50 at Cbl-b was below 100 nM. Further, in the experiment on T-cell [1], the fold induction at 0.3 µM was 1.51 to 1.75, the fold induction at 1 µM was above 1.76 and the fold induction at 4 µM was above 1.76. In addition, in the experiment with T-cell [2], the fold induction at 1 µM was above 1 and the fold induction at 8 µM is above 1. For the same compound, in the experiment with T-cell [3], the fold induction at 0.3 µM lay within 5 to 7.5, the fold induction at 1 µM is above 7.5 and the fold induction at 4 µM was above 7.5.

Regarding `C[C@H](Cc1nncn1C)c1cccc(NC(=O)c2nc3c(C(F)(F)F)cccc3[nH]2)c1` [Compound 196, N-[3-[(1R)-1-methyl-2-(4-methyl-1,2,4-triazol-3-yl)ethyl]phenyl]-4-(trifluoromethyl)-1H-benzimidazole-2-carboxamide], the IC50 on Cbl-b is below 100 nM. In the experiment with T-cell [1], the fold induction at 0.3 µM fell in the range of 1.01 to 1.3, the fold induction at 1 µM lay in the range of 1.51 to 1.75 and the fold induction at 4 µM was above 1.76. In the experiment on T-cell [2], the fold induction at 1 µM is above 1 and the fold induction at 8 µM is above 1. Further, in the experiment with T-cell [3], the fold induction at 0.3 µM is 2.51 to 5, the fold induction at 1 µM fell in the range of 5 to 7.5 and the fold induction at 4 µM is above 7.5.

Regarding `C[C@H](Cc1nncn1C)c1cccc(NC(=O)c2ccnc(C3CC3)n2)c1` [Compound 199, (R)-2-cyclopropyl-N-(3-(1-(4-methyl-4H-1,2,4-triazol-3-yl)propan-2-yl)phenyl)pyrimidine-4-carboxamide], on Cbl-b, the IC50 was below 100 nM. Further, in the experiment on T-cell [1], the fold induction at 0.3 µM was 1.01 to 1.3, the fold induction at 1 µM lay in the range of 1.31 to 1.5 and the fold induction at 4 µM fell in the range of 1.51 to 1.75. In the experiment on T-cell [2], the fold induction at 1 µM is above 1 and the fold induction at 8 µM is above 1. For the same compound, in the experiment on T-cell [3], the fold induction at 0.3 µM was 2.51 to 5, the fold induction at 1 µM was 5 to 7.5 and the fold induction at 4 µM is above 7.5.

With `C[C@H](Cc1nncn1C)c1cccc(NC(=O)c2ccc(CO)c(C3CC3)n2)c1` [Compound 203, 6-cyclopropyl-5-(hydroxymethyl)-N-[3-[(2R)-1-(4-methyl-4H-1,2,4-triazol-3-yl)propan-2-yl]phenyl]pyridine-2-carboxamide], at Cbl-b, the IC50 was below 100 nM. In the experiment with T-cell [1], the fold induction at 0.3 µM fell in the range of 1.31 to 1.5, the fold induction at 1 µM was 1.51 to 1.75 and the fold induction at 4 µM was in the range of 1.51 to 1.75. In the experiment with T-cell [2], the fold induction at 1 µM is above 1 and the fold induction at 8 µM was above 1. Further, in the experiment with T-cell [3], the fold induction at 0.3 µM was above 7.5, the fold induction at 1 µM was above 7.5 and the fold induction at 4 µM was above 7.5.

As to `CC(=O)N1CCN(c2ccc3cnc(C(=O)Nc4cccc([C@H](C)Cc5nncn5C)c4)cc3c2)CC1` [Compound 211, (R)-6-(4-acetylpiperazin-1-yl)-N-(3-(1-(4-methyl-4H-1,2,4-triazol-3-yl)propan-2-yl)phenyl)isoquinoline-3-carboxamide 2,2,2-trifluoroacetate], the IC50 on Cbl-b was below 100 nM. For the same compound, in the experiment on T-cell [1], the fold induction at 0.3 µM lay in the range of 1.01 to 1.3, the fold induction at 1 µM lay within 1.01 to 1.3 and the fold induction at 4 µM is 1.51 to 1.75. Moreover, in the experiment on T-cell [2], the fold induction at 1 µM lay in the range of 0.601 to 0.8 and the fold induction at 8 µM is above 1. For the same compound, in the experiment on T-cell [3], the fold induction at 0.3 µM lay within 2.51 to 5, the fold induction at 1 µM was in the range of 5 to 7.5 and the fold induction at 4 µM is above 7.5.

On to `C[C@H](Cc1nncn1C)c1cccc(NC(=O)c2cc(C(=O)N3CC[C@H](O)C3)cc(C(F)(F)F)n2)c1` [Compound 220, 4-((S)-3-hydroxypyrrolidine-1-carbonyl)-N-(3-((R)-1-(4-methyl-4H-1,2,4-triazol-3-yl)propan-2-yl)phenyl)-6-(trifluoromethyl)picolinamide], for which, at Cbl-b, the IC50 is below 100 nM. Besides, in the experiment on T-cell [1], the fold induction at 0.3 µM was 1.31 to 1.5, the fold induction at 1 µM fell in the range of 1.51 to 1.75 and the fold induction at 4 µM was above 1.76. Also, in the experiment on T-cell [2], the fold induction at 1 µM is above 1 and the fold induction at 8 µM was above 1. In addition, in the experiment with T-cell [3], the fold induction at 0.3 µM fell in the range of 2.51 to 5, the fold induction at 1 µM is above 7.5 and the fold induction at 4 µM is above 7.5.

Take `C[C@H](Cc1nncn1C)c1cccc(N2Cc3c(cccc3C(F)(F)F)C2=O)c1` [Compound 255a, (R)-2-(3-(1-(4-methyl-4H-1,2,4-triazol-3-yl)propan-2-yl)phenyl)-4-(trifluoromethyl)isoindolin-1-one]: on Cbl-b, the IC50 was below 100 nM. In addition, in the experiment with T-cell [1], the fold induction at 0.3 µM is 1.31 to 1.5, the fold induction at 1 µM lay in the range of 1.51 to 1.75 and the fold induction at 4 µM was above 1.76. In the experiment on T-cell [2], the fold induction at 1 µM is 0.601 to 0.8 and the fold induction at 8 µM was above 1. Moreover, in the experiment on T-cell [3], the fold induction at 0.3 µM lay in the range of 1.01 to 2.5, the fold induction at 1 µM was 2.51 to 5 and the fold induction at 4 µM is 5 to 7.5.

In the case of `C[C@H](Cc1nncn1C)c1cccc(N2Cc3c(cc(C(=O)N4CC[C@H](O)C4)cc3C(F)(F)F)C2=O)c1` [Compound 274, 6-((S)-3-hydroxypyrrolidine-1-carbonyl)-2-(3-((R)-1-(4-methyl-4H-1,2,4-triazol-3-yl)propan-2-yl)phenyl)-4-(trifluoromethyl)isoindolin-1-one], the IC50 on Cbl-b is below 100 nM. For the same compound, in the experiment with T-cell [1], the fold induction at 0.3 µM lay in the range of 1.01 to 1.3, the fold induction at 1 µM lay in the range of 1.01 to 1.3 and the fold induction at 4 µM fell in the range of 1.31 to 1.5. In the experiment on T-cell [2], the fold induction at 1 µM lay within 0.801 to 1 and the fold induction at 8 µM is above 1. Besides, in the experiment on T-cell [3], the fold induction at 0.3 µM fell in the range of 1.01 to 2.5, the fold induction at 1 µM lay within 2.51 to 5 and the fold induction at 4 µM was above 7.5.

Take `C[C@H](Cc1nncn1C)c1cccc(N2Cc3c(cc(C(=O)N4C[C@@H](O)C[C@H]4C)cc3C(F)(F)F)C2=O)c1` [Compound 275, 6-((2R,4S)-4-hydroxy-2-methylpyrrolidine-1-carbonyl)-2-(3-((R)-1-(4-methyl-4H-1,2,4-triazol-3-yl)propan-2-yl)phenyl)-4-(trifluoromethyl)isoindolin-1-one]: the IC50 at Cbl-b was below 100 nM. In the experiment with T-cell [1], the fold induction at 0.3 µM fell in the range of 1.31 to 1.5, the fold induction at 1 µM lay within 1.51 to 1.75 and the fold induction at 4 µM was above 1.76. Besides, in the experiment with T-cell [2], the fold induction at 1 µM was 0.801 to 1 and the fold induction at 8 µM was above 1. Also, in the experiment with T-cell [3], the fold induction at 0.3 µM is 2.51 to 5, the fold induction at 1 µM was 5 to 7.5 and the fold induction at 4 µM was above 7.5.
